Literature values as cited in patent US20260027014A1, “DEVICES AND METHODS RELATED TO COLORIMETRIC DETECTION FOR DENTAL USES” (CaviSense Inc., priority 2022, published 2026).
Like-named read-outs stand apart in the source and are kept apart here.

OC[C@H]1O[C@@](CO)(O[C@H]2O[C@H](CO)[C@@H](O)[C@H](O)[C@H]2O)[C@@H](O)[C@@H]1O [sucrose]
solubility (in methanol): 1 g/100 ml
solubility (in water): 210 g/100 mL
